Measurements taken from ChEMBL document CHEMBL1201862, “PubChem BioAssay data set” (2004).
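Test compounds were applied to cells in 96-well plates for 48 hours at 5 doses. GI50: concentration for 50% inhibition of growth.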 The source made the active and inactive calls. Cut-off read from the data, not from the text of the source: active = GI50 up to about 1.1 µM and inactive = higher.

Assays:
Assay in all cases: NCI tumour cell line growth inhibition, 48 h
[1] = test system: DU-145
[2] = test system: EKVX
[3] = test system: HCC 2998
[4] = test system: HL-60
[5] = test system: HOP-92
[6] = test system: Hs-578T
[7] = test system: Malme-3M
[8] = test system: NCI-H23
[9] = test system: NCI-H460
[10] = test system: NCI/ADR-RES
[11] = test system: OVCAR-3
[12] = test system: PC-3
[13] = test system: RPMI-8226
[14] = test system: RXF 393
[15] = test system: SF-295
[16] = test system: SK-MEL-5
[17] = test system: UO-31
[18] = test system: A498
[19] = test system: SF-539
[20] = test system: T47D

SMILES	GI50 [1]	GI50 [2]	GI50 [3]	GI50 [4]	GI50 [5]	GI50 [6]	GI50 [7]	GI50 [8]	GI50 [9]	GI50 [10]	GI50 [11]	GI50 [12]	GI50 [13]	GI50 [14]	GI50 [15]	GI50 [16]	GI50 [17]	GI50 [18]	GI50 [19]	GI50 [20]
COc1ccc(N2C(=O)c3cc(C)cnc3S2(=O)=O)cc1	> 100 µM (inactive)	> 100 µM (inactive)	> 100 µM (inactive)	> 100 µM (inactive)	> 100 µM (inactive)	> 100 µM (inactive)	> 100 µM (inactive)	> 100 µM (inactive)	> 100 µM (inactive)	> 100 µM (inactive)	> 100 µM (inactive)	> 100 µM (inactive)	> 100 µM (inactive)	> 100 µM (inactive)	> 100 µM (inactive)	> 100 µM (inactive)	> 100 µM (inactive)	–	–	–
CCOC(=O)CCC1(C(=O)OC)CCCC1=O (stereo unspecified)	–	> 100 µM (inactive)	> 100 µM (inactive)	> 100 µM (inactive)	> 100 µM (inactive)	–	> 100 µM (inactive)	> 100 µM (inactive)	> 100 µM (inactive)	–	> 100 µM (inactive)	–	> 100 µM (inactive)	> 100 µM (inactive)	> 100 µM (inactive)	> 100 µM (inactive)	> 100 µM (inactive)	> 100 µM (inactive)	> 100 µM (inactive)	–
CC1(C)O[C@H]2Cn3c(c(C#N)c4ccccc43)[C@H]2O1	> 100 µM (inactive)	> 100 µM (inactive)	> 100 µM (inactive)	> 100 µM (inactive)	> 100 µM (inactive)	> 100 µM (inactive)	> 100 µM (inactive)	> 100 µM (inactive)	> 100 µM (inactive)	> 100 µM (inactive)	> 100 µM (inactive)	–	> 100 µM (inactive)	–	> 100 µM (inactive)	> 100 µM (inactive)	> 100 µM (inactive)	–	> 100 µM (inactive)	> 100 µM (inactive)
S=c1[nH]nc(Cn2c3ccc(Br)cc3c3nc4ccccc4nc32)n1C1CCCCC1	27.8 µM (inactive)	35 µM (inactive)	16.1 µM (inactive)	–	–	–	29.7 µM (inactive)	13.8 µM (inactive)	20.2 µM (inactive)	27 µM (inactive)	18.5 µM (inactive)	20.4 µM (inactive)	17.7 µM (inactive)	18.5 µM (inactive)	16.7 µM (inactive)	6.87 µM (inactive)	18.2 µM (inactive)	20.5 µM (inactive)	18.6 µM (inactive)	19.4 µM (inactive)
O=C(ON=c1c2ccccc2ccc2ccccc12)c1cc([N+](=O)[O-])cc([N+](=O)[O-])c1	97.3 µM (inactive)	89.9 µM (inactive)	75.2 µM (inactive)	28 µM (inactive)	23.1 µM (inactive)	76.7 µM (inactive)	16.8 µM (inactive)	> 100 µM (inactive)	> 100 µM (inactive)	48.4 µM (inactive)	94.6 µM (inactive)	41.8 µM (inactive)	48.5 µM (inactive)	> 100 µM (inactive)	43.8 µM (inactive)	50.5 µM (inactive)	48 µM (inactive)	–	> 100 µM (inactive)	–
CC1SC2(CCCCC2)N(NC(=O)CSc2nc3ccc(Cl)cc3c(=O)n2-c2ccccc2)C1=O (stereo unspecified)	27 µM (inactive)	42.5 µM (inactive)	20 µM (inactive)	23.6 µM (inactive)	22.3 µM (inactive)	–	30.8 µM (inactive)	23.2 µM (inactive)	16.8 µM (inactive)	22.1 µM (inactive)	15.6 µM (inactive)	23.2 µM (inactive)	–	19.3 µM (inactive)	18.5 µM (inactive)	14.3 µM (inactive)	21.1 µM (inactive)	32.6 µM (inactive)	17.3 µM (inactive)	27.3 µM (inactive)
NC(=S)N/N=c1\cc(C(=O)Nc2ccc([N+](=O)[O-])cc2[N+](=O)[O-])oc2ccccc12	> 100 µM (inactive)	49.8 µM (inactive)	> 100 µM (inactive)	> 100 µM (inactive)	43.5 µM (inactive)	> 100 µM (inactive)	–	> 100 µM (inactive)	> 100 µM (inactive)	> 100 µM (inactive)	85.5 µM (inactive)	> 100 µM (inactive)	–	> 100 µM (inactive)	> 100 µM (inactive)	> 100 µM (inactive)	29.8 µM (inactive)	–	> 100 µM (inactive)	–
COc1cc(C2c3cc4c(cc3[C@@H](Nc3ccc(F)cc3)C3COC(=O)[C@H]23)OCO4)cc(OC)c1O (stereo partly specified)	0.368 µM (active)	3.76 µM (inactive)	3.28 µM (inactive)	–	2.91 µM (inactive)	–	2.48 µM (inactive)	1.3 µM (inactive)	0.0468 µM (active)	3.97 µM (inactive)	5.04 µM (inactive)	1.65 µM (inactive)	1.1 µM (active)	3.12 µM (inactive)	0.834 µM (active)	1.78 µM (inactive)	1.65 µM (inactive)	1.89 µM (inactive)	1.86 µM (inactive)	0.605 µM (active)
